The nature of data set [1]: human pharmacokinetic study: blood plasma concentration of valdecoxib. In kind it is in vivo. On the procedure: Subjects drank 180 ml water one, two and three hours postdose.
A further data set has as its target COX-1 (Homo sapiens, UniProt P23219). The settings on record: in vitro; cited from earlier work.
Data set [2] concerns patients requiring extraction of two ipsilateral impacted third molars. The data set can be described thus: placebo-controlled single-dose preemptive analgesia study, third molar extraction. In kind it is in vivo, human. On the procedure:
Beginning at 30 minutes after closure of surgery, level of pain was assessed every two hours up to 24 hours, except that patients were not awakened for pain assessments. Pain was assessed by the patient on a 0-3 scale and on a chart representing a continuum from “no pain” to “worst pain”. Rescue medication was administered on demand by the patient. At the last scheduled assessment, or immediately prior to administration of rescue medication, the patient was asked to evaluate the effectiveness of the study medication to delay pain. Time to rescue medication (TRM) was analyzed using survival analysis techniques. The median time to event for each treatment group was calculated using the Kaplan-Meier product limit estimator, including the adjustment described by Miller (1981) in Survival Analysis, pp. 74-75. New York: John Wiley & Sons. Ninety five percent (95%) confidence intervals for the median time to event were calculated using the method of Simon & Lee (1982), Cancer Treat. Rep. 66, 37-42. […] Patients who dropped out for reasons other than administration of rescue medication were censored at the time they dropped out of the study.

A short description of the next data set: physchem. The conditions noted are these: 20 °C, thermodynamic from solid.
Setting [3] is: single preemptive intravenous dose 40 mg.

Where only a bound is given, the exact number is not on record here.

Chain of COX-1 (P23219 24-599): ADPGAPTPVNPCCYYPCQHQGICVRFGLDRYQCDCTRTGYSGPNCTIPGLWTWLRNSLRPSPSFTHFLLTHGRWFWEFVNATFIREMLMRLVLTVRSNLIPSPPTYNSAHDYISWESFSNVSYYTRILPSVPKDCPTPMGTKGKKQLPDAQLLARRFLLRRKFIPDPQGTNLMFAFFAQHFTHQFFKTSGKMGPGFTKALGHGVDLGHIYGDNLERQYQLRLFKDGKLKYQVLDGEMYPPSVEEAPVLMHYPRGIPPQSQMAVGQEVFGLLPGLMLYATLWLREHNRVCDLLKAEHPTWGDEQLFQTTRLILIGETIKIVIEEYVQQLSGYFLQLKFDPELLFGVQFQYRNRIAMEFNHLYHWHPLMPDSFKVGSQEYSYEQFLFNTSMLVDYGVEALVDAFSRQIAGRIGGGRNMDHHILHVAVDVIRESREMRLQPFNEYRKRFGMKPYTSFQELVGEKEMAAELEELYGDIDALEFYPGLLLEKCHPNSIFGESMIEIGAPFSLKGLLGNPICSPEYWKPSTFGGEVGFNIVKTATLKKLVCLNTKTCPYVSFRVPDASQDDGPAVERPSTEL

Take `CCC(=O)NS(=O)(=O)c1ccc(-c2c(-c3ccccc3)noc2C)cc1` [Parecoxib, parecoxib]: the “conversion to valdecoxib after parenteral administration” value in data set [1] (human subject, parenteral) was “rapidly and completely converted to valdecoxib”. The “inhibitory activity against COX-1” value on COX-1 is listed as “weak in vitro inhibitory activity”. The “patients rating the study medication as good or excellent” value in data set [2] (40 mg treatment group) came out at 92%. In addition, the “patient's evaluation of effectiveness scores compared with placebo” value in data set [2] (each parecoxib treatment group) is “significantly higher”. In addition, the “proportion of patients taking rescue medication compared with placebo” value in data set [2] (parecoxib treatment groups 20, 40, 80 mg) is given as “significantly lower”. Also, in data set [2] (single doses 20 mg, 40 mg and 80 mg), the “TRM compared with placebo” value is reported as “significantly longer TRM than placebo”. Moreover, the “Patients taking rescue medication” value in data set [2] (single preemptive intravenous dose 20 mg) is 78%; in data set [2] (setting [3]), 48%; in data set [2] (single preemptive intravenous dose 80 mg) it was 59%. For the same molecule, the “Median TRM (time to rescue medication)” value in data set [2] (setting [3]) is on record as above 24 h.

The thermodynamic solubility is solubility found after equilibrating the solid with the medium. As for `CCC(=O)NS(=O)(=O)c1ccc(-c2c(-c3ccccc3)noc2C)cc1` [parecoxib sodium], in data set [1] (human, 20 mg IV bolus vs 20 mg valdecoxib oral immediate-release tablet), the “time at which maximum blood plasma concentration of valdecoxib was reached” value was “earlier”. The solubility (thermodynamic) was 1 mg/mL in “physchem” (pH 7.3, aqueous buffer); 18 mg/mL in “physchem” (pH 7.8, aqueous buffer); 220 mg/mL in the data set “physchem” (pH 8.2, aqueous buffer).

For the molecule `Cc1onc(-c2ccccc2)c1-c1ccc(S(N)(=O)=O)cc1` [valdecoxib], the “inhibitory activity against COX-1” value at COX-1 is listed as “weak inhibitor”.

The values above are taken from patent publication US7695736B2, “Reconstitutable parenteral composition” (Pfizer Inc., priority 2001, dated 2010).
